Laboratory results: patent publication US10334850B2, “Recombinant microorganism expressing avermectin analogue and use thereof” (Zhejiang Hisun Pharmaceutical Co., Ltd., priority 2014, dated 2019)

System: pine wood nematodes
Test: Toxicity assay against pine wood nematodes (immersion method)
Assay type: in vivo
Details: 24 h
Description: 3. Activity assay of tenvermectins against pine wood nematodes: The indoor activities of sixteen-membered macrolide compounds such as tenvermectins, avermectins, ivermectin, milbemycins, emamectin benzoate were assayed, wherein pine wood nematodes were used as the test insects. The aim was to compare the difference in activities of such medicaments on pine wood nematodes.
Test medicaments: five kinds of medicaments, i.e. 0.5% avermectins emulsifiable concentrate, 0.5% tenvermectins emulsifiable concentrate, 0.5% ivermectin emulsifiable concentrate, 2% milbemycins emulsifiable concentrate, 2.5% emamectin benzoate microemulsion.
Test Method: The immersion method was adopted. Five mass concentrations 2, 5, 10, 20, 50 mg/L were set for each of the medicaments, and each concentration was repeated for three times. The experimental results were subjected to statistics after 24 h (see Table 5).

Substance	Mortality at different concentrations (mg/L, %) (2 mg/L) [%]	Mortality at different concentrations (mg/L, %) (5 mg/L) [%]	Mortality at different concentrations (mg/L, %) (10 mg/L) [%]	Mortality at different concentrations (mg/L, %) (20 mg/L) [%]	Mortality at different concentrations (mg/L, %) (50 mg/L) [%]
emamectin benzoate	48.27	61.68	67.44	75	86.67
ivermectin	18.52	42.55	57.47	58.33	78.94
